Results reported in ChEMBL document CHEMBL3804756 (J Med Chem, 2016).

Tests used:
[1] = biological target: T1, Histamine H4 receptor (Homo sapiens, UniProt Q9H3N8); test: Agonist activity at human histamine H4 receptor expressed in sf9 cell membrane co-expressing mammalian Galphai2 and Gbeta1gamma2 incubated for 90 mins by [35S]GTPgammaS binding assay; assay type: functional
[2] = biological target: T2, Histamine H2 receptor (Homo sapiens, UniProt P25021); test: Intrinsic activity at human histamine H2 receptor expressed in sf9 cell membrane co-expressing Gsalphas at 10 uM incubated for 90 mins by [35S]GTPgammaS binding assay relative to histamine; assay type: functional
T2 sequence (P25021 whole entry): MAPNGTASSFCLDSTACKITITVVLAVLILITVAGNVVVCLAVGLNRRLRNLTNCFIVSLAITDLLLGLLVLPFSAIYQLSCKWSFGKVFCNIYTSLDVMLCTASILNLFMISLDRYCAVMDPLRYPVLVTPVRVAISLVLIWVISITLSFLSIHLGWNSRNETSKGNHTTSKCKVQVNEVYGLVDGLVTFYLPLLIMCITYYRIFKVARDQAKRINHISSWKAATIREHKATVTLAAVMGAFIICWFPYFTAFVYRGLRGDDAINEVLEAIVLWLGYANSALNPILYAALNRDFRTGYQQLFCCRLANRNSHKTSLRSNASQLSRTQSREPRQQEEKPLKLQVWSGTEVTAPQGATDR

[3] = biological target: T2, Histamine H2 receptor; test: Displacement of [3H]tiotidine from human histamine H2 receptor expressed in sf9 cell membrane co-expressing Gsalphas incubated for 60 mins by liquid scintillation counting method
[4] = biological target: T3, Histamine H3 receptor (Homo sapiens, UniProt Q9Y5N1); test: Displacement of [3H]N-alpha-methylhistamine from human histamine H3 receptor expressed in sf9 cell membrane co-expressing mammalian Galphai2 and Gbeta1gamma2 incubated for 60 mins by liquid scintillation counting method
T3 sequence (Q9Y5N1 whole entry): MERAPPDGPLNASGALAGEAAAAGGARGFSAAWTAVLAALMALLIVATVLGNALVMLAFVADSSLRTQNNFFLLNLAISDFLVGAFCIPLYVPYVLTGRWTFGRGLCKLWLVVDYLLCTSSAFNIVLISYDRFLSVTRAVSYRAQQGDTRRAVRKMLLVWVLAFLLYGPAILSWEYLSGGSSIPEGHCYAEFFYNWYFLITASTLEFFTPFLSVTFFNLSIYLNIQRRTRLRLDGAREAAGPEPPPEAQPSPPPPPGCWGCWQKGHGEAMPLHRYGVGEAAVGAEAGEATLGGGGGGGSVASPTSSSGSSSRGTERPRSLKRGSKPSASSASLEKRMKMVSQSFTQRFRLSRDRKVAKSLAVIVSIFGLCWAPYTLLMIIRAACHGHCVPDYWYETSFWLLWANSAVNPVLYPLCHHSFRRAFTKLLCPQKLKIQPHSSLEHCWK

[5] = biological target: T2, Histamine H2 receptor; test: Antagonist activity at human histamine H2 receptor expressed in sf9 cell membrane co-expressing Gsalphas assessed as inhibition of histamine-induced [35S]GTPgammaS binding incubated for 90 mins; assay type: functional
[6] = biological target: T3, Histamine H3 receptor; test: Intrinsic activity at human histamine H3 receptor expressed in sf9 cell membrane co-expressing mammalian Galphai2 and Gbeta1gamma2 at 10 uM incubated for 90 mins by [35S]GTPgammaS binding assay relative to histamine; assay type: functional
[7] = biological target: T4, Histamine H1 receptor (Homo sapiens, UniProt P35367); test: Displacement of [3H]mepyramine from human histamine H1 receptor expressed in sf9 cell membrane co-expressing RGS4 incubated for 60 mins by liquid scintillation counting method
T4 sequence (P35367 whole entry): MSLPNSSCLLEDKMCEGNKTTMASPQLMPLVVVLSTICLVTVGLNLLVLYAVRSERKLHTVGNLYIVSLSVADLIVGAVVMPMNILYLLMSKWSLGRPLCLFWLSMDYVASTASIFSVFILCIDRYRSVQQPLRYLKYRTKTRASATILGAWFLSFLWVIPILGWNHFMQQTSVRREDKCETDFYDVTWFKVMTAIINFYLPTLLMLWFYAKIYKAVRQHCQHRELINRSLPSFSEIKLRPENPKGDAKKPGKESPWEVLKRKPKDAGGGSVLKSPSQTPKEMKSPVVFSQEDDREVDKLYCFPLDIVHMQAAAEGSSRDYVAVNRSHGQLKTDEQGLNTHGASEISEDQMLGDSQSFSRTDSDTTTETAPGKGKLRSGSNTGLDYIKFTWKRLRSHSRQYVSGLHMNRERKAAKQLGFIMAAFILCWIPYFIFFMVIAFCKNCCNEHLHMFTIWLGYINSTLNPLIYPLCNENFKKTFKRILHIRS

[8] = biological target: T3, Histamine H3 receptor; test: Antagonist activity at human histamine H3 receptor expressed in sf9 cell membrane co-expressing mammalian Galphai2 and Gbeta1gamma2 assessed as inhibition of histamine-induced [35S]GTPgammaS binding incubated for 90 mins; assay type: functional
[9] = biological target: T1, Histamine H4 receptor; test: Displacement of [3H]UR-PI294 from human histamine H4 receptor expressed in sf9 cell membrane co-expressing mammalian Galphai2 and Gbeta1gamma2 incubated for 60 mins by liquid scintillation counting method
[10] = biological target: T5, Histamine H4 receptor (Mus musculus, UniProt Q91ZY2); test: Agonist activity at mouse SF-His6-tagged histamine H4 receptor expressed in HEK293 cells assessed as inhibition of forskolin-stimulated response incubated for 5 hrs by luciferase reporter gene assay; assay type: cell-based
T5 sequence (Q91ZY2 whole entry): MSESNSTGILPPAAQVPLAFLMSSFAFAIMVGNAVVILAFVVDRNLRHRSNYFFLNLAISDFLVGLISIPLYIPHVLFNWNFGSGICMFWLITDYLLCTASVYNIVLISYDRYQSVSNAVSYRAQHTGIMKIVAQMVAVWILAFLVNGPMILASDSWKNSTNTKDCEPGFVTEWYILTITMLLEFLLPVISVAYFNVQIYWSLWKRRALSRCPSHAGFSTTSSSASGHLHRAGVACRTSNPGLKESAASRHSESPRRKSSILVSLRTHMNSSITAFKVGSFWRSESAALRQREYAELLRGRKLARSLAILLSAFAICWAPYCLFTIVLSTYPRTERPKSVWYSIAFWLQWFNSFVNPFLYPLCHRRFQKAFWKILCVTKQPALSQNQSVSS

[11] = biological target: T1, Histamine H4 receptor; test: Agonist activity at human SF-His6-tagged histamine H4 receptor expressed in HEK293 cells assessed as inhibition of forskolin-stimulated response incubated for 5 hrs by luciferase reporter gene assay; assay type: cell-based
[12] = biological target: T3, Histamine H3 receptor; test: Agonist activity at human histamine H3 receptor expressed in sf9 cell membrane co-expressing mammalian Galphai2 and Gbeta1gamma2 incubated for 90 mins by [35S]GTPgammaS binding assay; assay type: functional
[13] = biological target: T6, Histamine H4 receptor (Mus musculus) (UniProt Q91ZY2); test: Intrinsic activity at mouse SF-His6-tagged histamine H4 receptor expressed in HEK293 cells assessed as inhibition of forskolin-stimulated response incubated for 5 hrs by luciferase reporter gene assay relative to histamine; assay type: cell-based
T6 sequence (whole entry): T5 sequence (Q91ZY2 whole entry)

[14] = biological target: T2, Histamine H2 receptor; test: Agonist activity at human histamine H2 receptor expressed in sf9 cell membrane co-expressing Gsalphas incubated for 90 mins by [35S]GTPgammaS binding assay; assay type: functional
[15] = biological target: T1, Histamine H4 receptor; test: biochemical; assay type: cell-based, SK-N-MC
[16] = biological target: T3, Histamine H3 receptor; test: Displacement of [3H]N-alpha-methylhistamine from human histamine H3 receptor expressed in human SK-N-MC cells incubated for 40 mins; assay type: cell-based
[17] = biological target: T4, Histamine H1 receptor; test: Antagonist activity at human histamine H1 receptor expressed in sf9 cell membrane co-expressing RGS4 assessed as inhibition of histamine-induced increase in 32Pi level preincubated for 2 mins followed by [gamma-32P]GTP addition measured after 20 mins by liquid scintillation counting method

| Kb [5] [nM] | Kb [8] [nM] | EC50 [11] [nM] | Ki [15] [nM] | Ki [16] [nM] | Kb [17] [nM] | SMILES | EC50 [1] [nM] | Intrinsic activity [2] | Ki [3] [nM] | Ki [4] [nM] | Intrinsic activity [6] | Ki [7] [nM] | Ki [9] [nM] | EC50 [10] [nM] | EC50 [12] [nM] | Intrinsic activity [13] | EC50 [14] [nM] | Ki ([7]; sf9) [nM] |
| --- | --- | --- | --- | --- | --- | --- | --- | --- | --- | --- | --- | --- | --- | --- | --- | --- | --- | --- |
| > 10000 | 528 |  |  |  |  | N#C/N=C(/NCCSc1ccccc1)NC[C@H]1CC[C@@H](c2c[nH]cn2)C1 | 549 | 0 | 7360 | 745 | -0.34 | 6780 | 290 |  |  |  |  |  |
|  |  |  |  |  |  | N#C/N=C(/NCCSc1ccccc1)NC[C@@H]1CC[C@H](c2c[nH]cn2)C1 | 293 |  | 7250 | 870 |  | 3050 | 180 |  |  |  |  |  |
|  |  | 25 |  |  |  | N#C/N=C(/NCCSc1ccccc1)NC[C@H]1CC[C@H](c2c[nH]cn2)C1 [listing 1 of 2 here] | 11 |  | 10300 | 2130 |  | 6520 | 22 | 166 |  |  |  |  |
| > 10000 | 1150 |  |  |  |  | N#C/N=C(/NCCSc1ccccc1)NC[C@H]1CC[C@H](c2c[nH]cn2)C1 [listing 2 of 2 here] |  | 0 |  |  | 0 |  |  |  |  | 0.67 |  |  |
|  |  |  | 12.7 | 4.3 |  | NCCCCc1c[nH]cn1 [IMBUTAMINE] |  |  |  |  |  |  |  |  |  |  |  |  |
| > 10000 | 246 |  |  |  | 6000 | N#C/N=C(/NCCSc1ccccc1)NC[C@H]1CC[C@H](c2c[nH]cn2)C1 (racemic) |  | 0 |  |  | -0.4 |  |  |  |  |  |  |  |
| > 10000 | 143 | 500 |  |  |  | N#C/N=C(/NCCSc1ccccc1)NC[C@@H]1CC[C@@H](c2c[nH]cn2)C1 |  | 0 | 9820 | 590 | -0.21 | 7910 | 1050 | 589 |  | 0.29 |  |  |
|  |  |  |  |  |  | CN/C(=N\C#N)NC[C@H]1CC[C@H](c2c[nH]cn2)C1 (racemic) | 206 |  |  | 830 |  | > 10000 | 240 |  | 370 |  |  |  |
|  |  |  |  |  |  | CN/C(=N\C#N)NC[C@@H]1CC[C@H](c2c[nH]cn2)C1 (racemic) | 111 |  |  | 860 |  | > 10000 | 155 |  | 547 |  |  |  |
|  |  |  |  |  |  | CN/C(=N\C#N)NC[C@@H]1CC[C@H](c2c[nH]cn2)C1 | 119 |  | > 10000 | 480 |  |  | 120 |  | 212 |  |  | > 10000 |
| > 10000 | 162 |  |  |  | 3800 | N#C/N=C(/NCCSc1ccccc1)NC[C@@H]1CC[C@H](c2c[nH]cn2)C1 (racemic) |  | 0 |  |  | -0.34 |  |  |  |  |  |  |  |

| SMILES | Kb [5] [nM] | Kb [8] [nM] | EC50 [11] [nM] | Ki [15] [nM] | Ki [16] [nM] | Kb [17] [nM] | EC50 [1] [nM] | Intrinsic activity [2] | Ki [3] [nM] | Ki [4] [nM] | Intrinsic activity [6] | Ki [7] [nM] | Ki [9] [nM] | EC50 [10] [nM] | EC50 [12] [nM] | Intrinsic activity [13] | EC50 [14] [nM] | Ki ([7]; sf9) [nM] |
| --- | --- | --- | --- | --- | --- | --- | --- | --- | --- | --- | --- | --- | --- | --- | --- | --- | --- | --- |
| CN/C(=N\C#N)NC[C@@H]1CC[C@@H](c2c[nH]cn2)C1 | > 10000 |  |  |  |  |  | 1100 | 0 | > 10000 | 5680 | 0.29 | > 10000 | 870 | 3630 | 9200 | 0.96 |  |  |
| NC[C@H]1CC[C@H](c2c[nH]cn2)C1 (racemic) |  | 103 |  |  |  |  | 1710 | 0 |  |  | 0 | > 10000 |  |  |  |  | > 10000 |  |
| CN/C(=N\C#N)NC[C@H]1CC[C@H](c2c[nH]cn2)C1 [listing 1 of 2 here] | > 10000 |  |  |  |  |  |  | 0 |  |  | 0.59 |  |  |  |  | 0.96 |  |  |
| N#C/N=C(\NC[C@H]1CC[C@H](c2c[nH]cn2)C1)NC1CC1 (racemic) | > 10000 |  |  |  |  |  | 230 | 0 |  |  | 0.36 | > 10000 |  |  | > 10000 |  |  |  |
| CN/C(=N\C#N)NC[C@H]1CC[C@H](c2c[nH]cn2)C1 [listing 2 of 2 here] |  |  | 63 |  |  |  | 100 |  | > 10000 | 958 |  |  | 98 | 538 | 994 |  |  | > 10000 |
| NC[C@@H]1CC[C@H](c2c[nH]cn2)C1 (racemic) |  | 62 |  |  |  |  | 150 | 0.19 |  |  | 0 | > 10000 |  |  |  |  | > 10000 |  |
| CN/C(=N\C#N)NC[C@H]1CC[C@@H](c2c[nH]cn2)C1 | > 10000 | 2810 |  |  |  |  | 2680 | 0 | > 10000 | 9500 | -0.14 | > 10000 | 3500 |  |  |  |  |  |
